The target of one data set is T1, MthA (Eubacterium limosum, UniProt A0AAC9QR60).
T1 construct: gene B2M23_01055
T1 sequence (A0AAC9QR60 1-264): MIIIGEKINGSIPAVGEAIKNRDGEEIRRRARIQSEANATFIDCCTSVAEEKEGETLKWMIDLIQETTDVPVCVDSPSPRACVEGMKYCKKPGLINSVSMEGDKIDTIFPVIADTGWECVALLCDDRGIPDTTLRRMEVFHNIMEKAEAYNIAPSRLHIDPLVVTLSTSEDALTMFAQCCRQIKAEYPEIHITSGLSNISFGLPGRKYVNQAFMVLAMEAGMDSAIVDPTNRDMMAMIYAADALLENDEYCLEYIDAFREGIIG
Description: HPLC, methyl-THF formation. It is filed as biochemical. The following applies: 5 mM THF, MthB, MthC, RamQ, Ti(III)citrate, ATP, 50 mM phosphocholine, MOPS pH 7.0, 24 °C.

The next data set has as its system MthB. Description: UV/Vis, methyl-Co(III)-MthC formation at […] nm. It is filed as biochemical, Eubacterium limosum. To be noted: co-substrate 30 μM Co(I)-MthC, RamQ, Ti(III)citrate, 2 mM ATP, MOPS pH 7.2, 37 °C; read-out: apparent KM.
Substrate in the data set “purified protein”: C[N+](C)(C)CCO
Description: purified protein. It is filed as biochemical, Eubacterium limosum. The following applies: 5 mM ATP, 10 mM MgCl2, 100 mM KCl, glycine-NaOH pH 9.0.

`Nc1nc2c(c(=O)[nH]1)N[C@@H](CNc1ccc(C(=O)N[C@@H](CCC(=O)O)C(=O)O)cc1)CN2` [THF]: on MthA, the “HPLC, methyl-THF formation” value is “the further addition of MthA allowed the methylation of THF with phosphocholine as assayed by HPLC”. By Km is commonly meant the substrate concentration at which the rate is half of its maximum. For the molecule `C[N+](C)(C)CCOP(=O)([O-])O` [phosphocholine], the Km with MthB was determined as 11.3 ± 1.9 mM.

B1: MthK (Eubacterium limosum) (protein)
chain: MVDGKFIEMQTEIMKNYPPANAQALLNIFNAASGMQEYLDNVLAKTRESYLYTQLRDLVENYYDIGTLLDVYQIFGGYINTSFGIYTEKNGKKQTWFVRKYKNGKELESLLFEHSMLKYAKENGFSYGAVPIPAKDGKTYHEVTETTTEGETKSYFAVFNFVGGKAHYDWIPNWANAGVADLTVISAAKSLAEFHNSTRGFDPEGRHGDNIMDNEDITVNEIIRKFPKTLKEYRKSYAEAGFENVYTEYYDANYDYFAKMCERSVIPDVDYDTMVSNVCHCDFHPGNFKYLDNGEVCGSFDYDMAKIDSRLFELGLAIHYCFSSWLSDTNGIINLDRASLFVKTYDEELHKAGGIEPLTDIEKKYLYEVTVQGALYDLGWCSSACVYDSTLDPYEYLFYTQHFVACLKWLEANEAAFRKAFD
What is called kcat is the maximal rate divided by the concentration of active sites. With B1, in “purified protein”, the Km came out at 2.8 ± 0.2 µM and the kcat was 13.8 ± 0.28 s⁻¹.

For the origin of these results see article PMC12155760, “A cobalamin-dependent pathway of choline demethylation from the human gut acetogen Eubacterium limosum [drawing 1]” (The Journal of Biological Chemistry, 2025).
